Test results reported in patent US20080275248A1, “NOVEL 4BETA-AMINO PODOP[…] AS POTENTIAL ANTICANCER AGENTS AND A PROCESS FOR THE PREPARATION THEREOF” (priority 2007, published 2008).
In brackets after ≈: the same amount, converted by molar mass. Where two headings read alike, the source gives them in different places.

Columns and labels:
Type in all cases: cell-based, human
Colo205 = experiment: SRB cytotoxicity assay, colon Colo205; details: for IC50: Homo sapiens, read-out: Activity status in terms of IC50 values, Colon Colo205
Description: (§1) Single cell suspension of the tumor cells grown in tissue culture were made, cells counted and cell count adjusted to 1×10 ^5 to 5×10^5 cells/ml. Ninety six (96) well plates were seeded with this cell suspension, each well receiving 100 μl of it. The plate was then be incubated at 37° C. temperature in CO2 incubator for 24 hours. Drugs were added at appropriate concentrations after 24-hour incubation followed by further incubation for 48 hours. Experiment was terminated by gently layering the cells in the wells with 30% TCA and plates were kept in refrigerator for 1 hour following which they were washed thoroughly with tap water, dried attained with 0.4% SRB in 1% acetic aid and finally, the bound SRB eluted with 10 mM tris. Absorbance was read at 540 nm, in the microtitre-plate reader. Optical density of drug-treated cells was compared with that of control cells and cell inhibition was calculated as percent values. Each compound was tested at 10, 20, 40 and 80 μg/ml in triplicate on human malignant cell lines.

DU145 = experiment: SRB cytotoxicity assay, prostate DU145; details: for IC50: Homo sapiens, read-out: Activity status in terms of IC50 values, Prostate DU145
Description: as §1

PC3 = experiment: SRB cytotoxicity assay, prostate PC3; details: for IC50: Homo sapiens, read-out: Activity status in terms of IC50 values, Prostate PC3
Description: as §1

Hop62 = experiment: SRB cytotoxicity assay, lung Hop62; details: for IC50: Homo sapiens, read-out: Activity status in terms of IC50 values, Lung Hop62
Description: as §1

MCF7 = experiment: SRB cytotoxicity assay, breast MCF7; details: for IC50: Homo sapiens, read-out: Activity status in terms of IC50 values, Breast MCF7
Description: as §1

Zr-75-1 = experiment: SRB cytotoxicity assay, breast Zr-75-1; details: for IC50: Homo sapiens, read-out: Activity status in terms of IC50 values, Breast Zr-75-1
Description: as §1

SiHa = experiment: SRB cytotoxicity assay, cervix SiHa; details: for IC50: Homo sapiens, read-out: Activity status in terms of IC50 values, Cervix SiHa
Description: as §1

HT1080 = experiment: SRB cytotoxicity assay, oral HT1080; details: for IC50: Homo sapiens, read-out: Activity status in terms of IC50 values, Oral HT1080
Description: as §1

DWD = experiment: SRB cytotoxicity assay, oral DWD; details: for IC50: Homo sapiens, read-out: Activity status in terms of IC50 values, Oral DWD
Description: as §1

[1] = Colo205 colon cancer cells, SRB assay, 48 hours drug incubation
[2] = DU145 prostate cancer cells, SRB assay, 48 hours drug incubation
[3] = PC3 prostate cancer cells, SRB assay, 48 hours drug incubation
[4] = Hop62 lung cancer cells, SRB assay, 48 hours drug incubation
[5] = MCF7 breast cancer cells, SRB assay, 48 hours drug incubation
[6] = Zr-75-1 breast cancer cells, SRB assay, 48 hours drug incubation
[7] = SiHa cervix cancer cells, SRB assay, 48 hours drug incubation
[8] = HT1080 oral cancer cells, SRB assay, 48 hours drug incubation
[9] = DWD oral cancer cells, SRB assay, 48 hours drug incubation

COc1cc(C2c3cc4c(cc3C(Nc3ccc(-c5nc6ccccc6s5)cc3)C3COC(=O)C23)OCO4)cc(OC)c1OC (stereo not drawn) [Compound 4a, 4β-[4″-(1″,3″-benzothiazole-2″-yl)anilino]-4-desoxypodophyllotoxin]
Activity status in terms of IC50 values, Colon Colo205 (Colo205; [1]): 8 µg/mL
Activity status in terms of IC50 values, Prostate DU145 (DU145; [2]): >80 µg/mL
Activity status in terms of IC50 values, Prostate PC3 (PC3; [3]): >80 µg/mL
Activity status in terms of IC50 values, Lung Hop62 (Hop62; [4]): >80 µg/mL
Activity status in terms of IC50 values, Breast MCF7 (MCF7; [5]): >80 µg/mL
Activity status in terms of IC50 values, Breast Zr-75-1 (Zr-75-1; [6]): >80 µg/mL
Activity status in terms of IC50 values, Cervix SiHa (SiHa; [7]): >80 µg/mL
Activity status in terms of IC50 values, Oral HT1080 (HT1080; [8]): 8 µg/mL
Activity status in terms of IC50 values, Oral DWD (DWD; [9]): 22 µg/mL

COc1cc(C2c3cc4c(cc3C(Nc3ccc(-c5nc6ccccc6s5)cc3)C3COC(=O)C23)OCO4)cc(OC)c1O (stereo not drawn) [Compound 4b, 4′-O-Demethyl-4β-[4″-(1″,3″-benzothiazole-2″-yl)anilino]-4-desoxypodophyllotoxin]
Activity status in terms of IC50 values, Colon Colo205 (Colo205; [1]): 8 µg/mL
Activity status in terms of IC50 values, Prostate DU145 (DU145; [2]): 13 µg/mL
Activity status in terms of IC50 values, Prostate PC3 (PC3; [3]): >80 µg/mL
Activity status in terms of IC50 values, Lung Hop62 (Hop62; [4]): 8 µg/mL
Activity status in terms of IC50 values, Breast MCF7 (MCF7; [5]): >80 µg/mL
Activity status in terms of IC50 values, Breast Zr-75-1 (Zr-75-1; [6]): >80 µg/mL
Activity status in terms of IC50 values, Cervix SiHa (SiHa; [7]): >80 µg/mL
Activity status in terms of IC50 values, Oral HT1080 (HT1080; [8]): >80 µg/mL
Activity status in terms of IC50 values, Oral DWD (DWD; [9]): 6 µg/mL

COc1cccc2c1C(=O)c1c(O)c3c(c(O)c1C2=O)C[C@@](O)(C(=O)CO)C[C@@H]3O[C@H]1C[C@H](N)[C@H](O)[C@H](C)O1 [ADR, Adriamycin, reference compound]
IC50 (Colo205; COLO 205, Colo205 colon cancer cells, SRB assay, 48 hours drug incubation): 5 µg/mL (≈ 9.2 µM)
IC50 (DU145; DU-145, DU145 prostate cancer cells, SRB assay, 48 hours drug incubation): 6 µg/mL (≈ 11 µM)
IC50 (PC3; PC-3, PC3 prostate cancer cells, SRB assay, 48 hours drug incubation): 5 µg/mL (≈ 9.2 µM)
IC50 (Hop62; HOP-62, Hop62 lung cancer cells, SRB assay, 48 hours drug incubation): 5 µg/mL (≈ 9.2 µM)
IC50 (MCF7; [5]): 5 µg/mL (≈ 9.2 µM)
IC50 (Zr-75-1; [6]): 5 µg/mL (≈ 9.2 µM)
IC50 (SiHa; [7]): 5 µg/mL (≈ 9.2 µM)
IC50 (HT1080; HT-1080, HT1080 oral cancer cells, SRB assay, 48 hours drug incubation): 4 µg/mL (≈ 7.36 µM)
IC50 (DWD; [9]): 2 µg/mL (≈ 3.68 µM)

COc1cc([C@@H]2c3cc4c(cc3[C@H](O)[C@H]3COC(=O)[C@H]23)OCO4)cc(OC)c1OC [Compound 1, Podophyllotoxin, reference compound]
IC50 (Colo205; COLO 205, 48 h): 5 µg/mL (≈ 12.1 µM)
IC50 (DU145; DU-145, 48 h): 2 µg/mL (≈ 4.83 µM)
IC50 (PC3; PC-3, 48 h): 8 µg/mL (≈ 19.3 µM)
IC50 (Hop62; HOP-62, 48 h): 13 µg/mL (≈ 31.4 µM)
IC50 (MCF7; MCF7, 48 h): 3 µg/mL (≈ 7.24 µM)
IC50 (Zr-75-1; ZR-75-1, 48 h): 7 µg/mL (≈ 16.9 µM)
IC50 (SiHa; SiHa, 48 h): 23 µg/mL (≈ 55.5 µM)
IC50 (HT1080; HT-1080, 48 h): 8 µg/mL (≈ 19.3 µM)
IC50 (DWD; DWD, 48 h): 6 µg/mL (≈ 14.5 µM)

COc1cc(C2c3cc4c(cc3C(Nc3ccc(-c5nc6ccc(F)cc6s5)cc3)C3COC(=O)C23)OCO4)cc(OC)c1O (stereo not drawn) [Compound 4h, 4′-O-Demethyl-4β-[4″-(6″-fluoro-1″,3″-benzothiazole-2″-yl)anilino]-4-desoxypodophyllotoxin]
Activity status in terms of IC50 values, Colon Colo205 (Colo205; [1]): 8 µg/mL
Activity status in terms of IC50 values, Prostate DU145 (DU145; [2]): >80 µg/mL
Activity status in terms of IC50 values, Prostate PC3 (PC3; [3]): >80 µg/mL
Activity status in terms of IC50 values, Lung Hop62 (Hop62; [4]): 10 µg/mL
Activity status in terms of IC50 values, Breast MCF7 (MCF7; [5]): >80 µg/mL
Activity status in terms of IC50 values, Breast Zr-75-1 (Zr-75-1; [6]): >80 µg/mL
Activity status in terms of IC50 values, Cervix SiHa (SiHa; [7]): >80 µg/mL
Activity status in terms of IC50 values, Oral HT1080 (HT1080; [8]): >80 µg/mL
Activity status in terms of IC50 values, Oral DWD (DWD; [9]): 9 µg/mL

COc1cc(C2c3cc4c(cc3C(Nc3ccc(-c5nc6ccc(F)cc6s5)cc3)C3COC(=O)C23)OCO4)cc(OC)c1OC (stereo not drawn) [Compound 4g, 4β-[4″-(6″-Fluoro-1″,3″-benzothiazole-2″-yl)anilino]-4-desoxypodophyllotoxin]
Activity status in terms of IC50 values, Colon Colo205 (Colo205; [1]): 7 µg/mL
Activity status in terms of IC50 values, Prostate DU145 (DU145; [2]): >80 µg/mL
Activity status in terms of IC50 values, Prostate PC3 (PC3; [3]): >80 µg/mL
Activity status in terms of IC50 values, Lung Hop62 (Hop62; [4]): 30 µg/mL
Activity status in terms of IC50 values, Breast MCF7 (MCF7; [5]): >80 µg/mL
Activity status in terms of IC50 values, Breast Zr-75-1 (Zr-75-1; [6]): >80 µg/mL
Activity status in terms of IC50 values, Cervix SiHa (SiHa; [7]): >80 µg/mL
Activity status in terms of IC50 values, Oral HT1080 (HT1080; [8]): 9 µg/mL
Activity status in terms of IC50 values, Oral DWD (DWD; [9]): 5 µg/mL

COc1cc(C2c3cc4c(cc3C(Nc3ccc(-c5nc6ccccc6s5)c(Cl)c3)C3COC(=O)C23)OCO4)cc(OC)c1OC (stereo not drawn) [Compound 4c, 4β-[4″-(1″,3″-Benzothiazole-2″-yl)-3″-chloroanilino]-4-desoxypodophyllotoxin]
Activity status in terms of IC50 values, Colon Colo205 (Colo205; [1]): 7 µg/mL
Activity status in terms of IC50 values, Prostate DU145 (DU145; [2]): >80 µg/mL
Activity status in terms of IC50 values, Prostate PC3 (PC3; [3]): >80 µg/mL
Activity status in terms of IC50 values, Lung Hop62 (Hop62; [4]): 15 µg/mL
Activity status in terms of IC50 values, Breast MCF7 (MCF7; [5]): >80 µg/mL
Activity status in terms of IC50 values, Breast Zr-75-1 (Zr-75-1; [6]): >80 µg/mL
Activity status in terms of IC50 values, Cervix SiHa (SiHa; [7]): >80 µg/mL
Activity status in terms of IC50 values, Oral HT1080 (HT1080; [8]): 9 µg/mL
Activity status in terms of IC50 values, Oral DWD (DWD; [9]): 5 µg/mL

COc1cc(C2c3cc4c(cc3C(Nc3ccc(-c5nc6ccccc6s5)c(Cl)c3)C3COC(=O)C23)OCO4)cc(OC)c1O (stereo not drawn) [Compound 4d, 4′-O-Demethyl-4β-[4″-(1″,3″-benzothiazole-2″-yl)-3″-chloroanilino]-4-desoxypodophyllotoxin]
Activity status in terms of IC50 values, Colon Colo205 (Colo205; [1]): 7 µg/mL
Activity status in terms of IC50 values, Prostate DU145 (DU145; [2]): >80 µg/mL
Activity status in terms of IC50 values, Prostate PC3 (PC3; [3]): >80 µg/mL
Activity status in terms of IC50 values, Lung Hop62 (Hop62; [4]): 60 µg/mL
Activity status in terms of IC50 values, Breast MCF7 (MCF7; [5]): >80 µg/mL
Activity status in terms of IC50 values, Breast Zr-75-1 (Zr-75-1; [6]): >80 µg/mL
Activity status in terms of IC50 values, Cervix SiHa (SiHa; [7]): >80 µg/mL
Activity status in terms of IC50 values, Oral HT1080 (HT1080; [8]): 9 µg/mL
Activity status in terms of IC50 values, Oral DWD (DWD; [9]): 7 µg/mL
